We go through one molecule from ChEMBL document CHEMBL5696443 (Clin Cancer Res, 2016).

Structures are written as SMILES. pIC50: −log10 of the molar value. Where only a bound is given, the exact number is not on record here.

In data set [1] the test system is EML4-ALK (Homo sapiens), Q9UM73+Q9HC35 [S1206Y]. Particulars: BaF3, time 3-5 weeks.
Data set [2] concerns the target Serine/threonine-protein kinase 26 (Homo sapiens) (UniProt Q9P289). The data set is described as follows: Inhibition of human STK26 at 1 uM using MBP as substrate in presence of [gamma33P]-ATP by HotSpot assay relative to control.
Data set [3] concerns the target Mitogen-activated protein kinase 11 (Homo sapiens) (UniProt Q15759). The data set is described as follows: Inhibition of human MAPK11 at 1 uM using MBP as substrate in presence of [gamma33P]-ATP by HotSpot assay relative to control.
Data set [4] concerns the target Ephrin type-A receptor 1 (Homo sapiens, UniProt P21709). The experiment in a line: Inhibition of human EPHA1 using poly (Glu, Tyr)4:1 as substrate in presence of [gamma33P]-ATP by HotSpot assay.
The target of data set [5] is Fibroblast growth factor receptor 3 (Homo sapiens, UniProt P22607). The experiment in a line: Inhibition of human FGFR3 using poly (Glu, Tyr)4:1 as substrate in presence of [gamma33P]-ATP by HotSpot assay.
In data set [6] the target is cGMP-dependent protein kinase 1 (Homo sapiens, UniProt Q13976). The data set is described as follows: Inhibition of human PRKG1 using LRRASLG as substrate in presence of [gamma33P]-ATP by HotSpot assay.
The target of data set [7] is Cytoplasmic tyrosine-protein kinase BMX (Homo sapiens) (UniProt P51813). The data set is described as follows: Inhibition of human BMX at 1 uM using poly (Glu, Tyr)4:1 as substrate in presence of [gamma33P]-ATP by HotSpot assay relative to control.
Data set [8] has as its target Fibroblast growth factor receptor 2 (Homo sapiens, UniProt P21802). The data set is described as follows: Inhibition of human FGFR2 using poly (Glu, Tyr)4:1 as substrate in presence of [gamma33P]-ATP by HotSpot assay.
In data set [9] the test system is NCI-H3122. The conditions noted are these: time 72 hrs.
In data set [10] the target is Dual specificity protein kinase CLK2 (Homo sapiens, UniProt P49760). The data set is described as follows: Inhibition of human CLK2 using MBP as substrate in presence of [gamma33P]-ATP by HotSpot assay.
The target of data set [11] is Mitogen-activated protein kinase 14 (Homo sapiens) (UniProt Q16539). The data set is described as follows: Inhibition of human P38alpha T106M mutant at 1 uM using poly (Glu, Tyr)4:1 as substrate in presence of [gamma33P]-ATP by HotSpot assay relative to control.
The target of data set [12] is CDK6/cyclin D1 (Homo sapiens) (UniProt P24385+Q00534). The experiment in a line: Inhibition of human CDK6/CyclinD1 at 1 uM using RB protein as substrate in presence of [gamma33P]-ATP by HotSpot assay relative to control. The format is protein-complex assay.
Data set [13] concerns the target Homeodomain-interacting protein kinase 2 (Homo sapiens) (UniProt Q9H2X6). The data set is described as follows: Inhibition of human HIPK2 at 1 uM using MBP as substrate in presence of [gamma33P]-ATP by HotSpot assay relative to control.
Data set [14] addresses Death-associated protein kinase 3 (Homo sapiens) (UniProt O43293). The data set is described as follows: Inhibition of human DAPK3 at 1 uM using KKLNRTLSFAEPG as substrate in presence of [gamma33P]-ATP by HotSpot assay relative to control.
Data set [15] in a line: Toxicity in CB-17/SCID mouse implanted with ALK positive mouse BaF3 cells expressing EML4-ALK G1202R mutant assessed as effect on body weight at 25 to 50 mg/kg, po administered once daily and measured after 6 days. The format is organism-based. Particulars: in vivo, 144 h, dose 25-50 mg/kg, time 6 day.
The target in data set [16] is Serine/threonine-protein kinase DCLK2 (Homo sapiens) (UniProt Q8N568). The experiment in a line: Inhibition of human DCLK2 at 1 uM using KKLNRTLSFAEPG as substrate in presence of [gamma33P]-ATP by HotSpot assay relative to control.

Chain of Dual specificity protein kinase CLK2 (P49760 whole entry): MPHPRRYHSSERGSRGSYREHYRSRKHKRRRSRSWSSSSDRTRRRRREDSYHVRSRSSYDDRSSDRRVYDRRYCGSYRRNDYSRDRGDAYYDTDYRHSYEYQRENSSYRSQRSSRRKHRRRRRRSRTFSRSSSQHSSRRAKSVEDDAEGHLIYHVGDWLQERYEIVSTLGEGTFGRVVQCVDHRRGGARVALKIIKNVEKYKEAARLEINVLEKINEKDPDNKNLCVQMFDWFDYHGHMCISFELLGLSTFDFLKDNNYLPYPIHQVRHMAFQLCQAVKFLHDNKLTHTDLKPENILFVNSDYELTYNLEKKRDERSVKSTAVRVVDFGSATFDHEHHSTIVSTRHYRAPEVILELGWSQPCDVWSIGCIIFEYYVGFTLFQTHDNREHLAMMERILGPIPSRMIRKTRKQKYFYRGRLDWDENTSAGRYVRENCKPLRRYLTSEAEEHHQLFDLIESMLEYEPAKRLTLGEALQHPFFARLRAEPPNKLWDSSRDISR
Chain of Mitogen-activated protein kinase 11 (Homo sapiens) (Q15759 whole entry): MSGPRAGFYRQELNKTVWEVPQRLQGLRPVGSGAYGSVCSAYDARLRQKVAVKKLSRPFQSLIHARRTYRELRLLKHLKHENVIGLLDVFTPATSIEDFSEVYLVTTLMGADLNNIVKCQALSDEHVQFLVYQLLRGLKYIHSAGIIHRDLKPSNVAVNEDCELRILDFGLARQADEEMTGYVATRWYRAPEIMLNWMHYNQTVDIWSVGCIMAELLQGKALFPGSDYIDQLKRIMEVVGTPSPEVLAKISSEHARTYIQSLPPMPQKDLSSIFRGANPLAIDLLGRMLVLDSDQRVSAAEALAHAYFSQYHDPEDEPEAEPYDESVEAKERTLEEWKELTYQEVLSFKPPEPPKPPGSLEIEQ
Chain of Fibroblast growth factor receptor 3 (P22607 whole entry): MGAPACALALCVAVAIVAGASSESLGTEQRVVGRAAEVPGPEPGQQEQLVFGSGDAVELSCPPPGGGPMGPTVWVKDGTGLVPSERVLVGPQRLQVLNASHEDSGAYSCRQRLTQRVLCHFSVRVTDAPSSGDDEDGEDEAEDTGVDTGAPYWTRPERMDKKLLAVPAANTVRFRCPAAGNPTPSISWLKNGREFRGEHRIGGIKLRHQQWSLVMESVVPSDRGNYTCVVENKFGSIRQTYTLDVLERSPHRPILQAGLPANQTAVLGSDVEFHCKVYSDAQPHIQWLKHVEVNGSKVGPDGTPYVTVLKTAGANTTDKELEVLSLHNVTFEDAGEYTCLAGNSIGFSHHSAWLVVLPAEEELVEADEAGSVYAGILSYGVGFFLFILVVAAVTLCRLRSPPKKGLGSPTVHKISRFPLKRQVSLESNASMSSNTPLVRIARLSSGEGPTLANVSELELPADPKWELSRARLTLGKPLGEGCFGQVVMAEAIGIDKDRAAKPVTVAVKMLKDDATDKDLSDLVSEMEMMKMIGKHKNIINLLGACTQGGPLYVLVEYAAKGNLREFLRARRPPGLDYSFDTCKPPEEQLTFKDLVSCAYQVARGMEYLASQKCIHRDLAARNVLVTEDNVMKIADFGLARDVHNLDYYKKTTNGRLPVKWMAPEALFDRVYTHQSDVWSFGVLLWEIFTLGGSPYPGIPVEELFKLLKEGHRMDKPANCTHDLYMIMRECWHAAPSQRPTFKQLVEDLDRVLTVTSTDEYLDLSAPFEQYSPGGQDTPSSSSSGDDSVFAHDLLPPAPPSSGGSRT
Chain of Ephrin type-A receptor 1 (P21709 whole entry): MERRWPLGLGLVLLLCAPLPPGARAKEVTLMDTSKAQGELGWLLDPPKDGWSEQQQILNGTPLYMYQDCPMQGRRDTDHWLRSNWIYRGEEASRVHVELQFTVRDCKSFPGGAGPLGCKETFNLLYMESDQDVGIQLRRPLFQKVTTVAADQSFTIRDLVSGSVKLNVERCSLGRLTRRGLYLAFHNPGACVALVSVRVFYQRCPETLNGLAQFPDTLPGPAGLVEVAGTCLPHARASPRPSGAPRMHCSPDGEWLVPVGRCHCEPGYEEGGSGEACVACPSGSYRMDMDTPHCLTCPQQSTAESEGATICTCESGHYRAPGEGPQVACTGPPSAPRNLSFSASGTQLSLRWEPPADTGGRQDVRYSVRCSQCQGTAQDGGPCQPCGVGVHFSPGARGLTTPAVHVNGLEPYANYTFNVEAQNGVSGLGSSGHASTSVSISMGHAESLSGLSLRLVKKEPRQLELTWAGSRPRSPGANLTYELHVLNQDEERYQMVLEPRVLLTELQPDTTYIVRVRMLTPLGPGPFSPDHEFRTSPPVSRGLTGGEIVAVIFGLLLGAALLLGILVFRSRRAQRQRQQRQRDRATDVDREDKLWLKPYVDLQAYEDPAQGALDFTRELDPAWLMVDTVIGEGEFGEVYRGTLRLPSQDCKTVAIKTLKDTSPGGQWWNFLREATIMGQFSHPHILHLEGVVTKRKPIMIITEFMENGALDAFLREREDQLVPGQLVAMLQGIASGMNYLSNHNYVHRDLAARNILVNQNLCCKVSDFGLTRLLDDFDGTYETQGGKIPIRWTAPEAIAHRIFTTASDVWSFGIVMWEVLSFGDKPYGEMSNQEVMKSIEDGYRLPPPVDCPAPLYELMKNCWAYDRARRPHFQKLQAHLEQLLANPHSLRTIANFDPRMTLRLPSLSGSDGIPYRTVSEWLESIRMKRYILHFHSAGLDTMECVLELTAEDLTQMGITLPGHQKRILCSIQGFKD
Chain of Cytoplasmic tyrosine-protein kinase BMX (Homo sapiens) (P51813 whole entry): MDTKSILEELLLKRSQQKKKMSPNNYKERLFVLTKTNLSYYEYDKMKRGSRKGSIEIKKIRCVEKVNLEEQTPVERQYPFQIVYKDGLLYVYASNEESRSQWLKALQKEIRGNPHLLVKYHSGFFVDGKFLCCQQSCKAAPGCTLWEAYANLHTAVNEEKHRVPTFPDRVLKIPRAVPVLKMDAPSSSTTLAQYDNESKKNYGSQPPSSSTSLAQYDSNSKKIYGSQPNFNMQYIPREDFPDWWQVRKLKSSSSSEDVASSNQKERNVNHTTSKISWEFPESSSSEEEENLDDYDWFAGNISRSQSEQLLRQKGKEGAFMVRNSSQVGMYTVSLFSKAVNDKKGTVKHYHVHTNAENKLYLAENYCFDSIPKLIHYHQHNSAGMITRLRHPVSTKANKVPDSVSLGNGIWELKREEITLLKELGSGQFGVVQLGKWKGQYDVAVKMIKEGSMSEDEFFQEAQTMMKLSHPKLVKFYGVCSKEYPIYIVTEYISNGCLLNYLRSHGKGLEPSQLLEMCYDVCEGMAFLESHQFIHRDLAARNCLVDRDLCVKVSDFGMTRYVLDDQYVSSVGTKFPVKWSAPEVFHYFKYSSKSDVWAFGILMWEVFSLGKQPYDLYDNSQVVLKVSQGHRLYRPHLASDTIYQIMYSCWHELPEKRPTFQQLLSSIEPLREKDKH
Chain of cGMP-dependent protein kinase 1 (Q13976 whole entry): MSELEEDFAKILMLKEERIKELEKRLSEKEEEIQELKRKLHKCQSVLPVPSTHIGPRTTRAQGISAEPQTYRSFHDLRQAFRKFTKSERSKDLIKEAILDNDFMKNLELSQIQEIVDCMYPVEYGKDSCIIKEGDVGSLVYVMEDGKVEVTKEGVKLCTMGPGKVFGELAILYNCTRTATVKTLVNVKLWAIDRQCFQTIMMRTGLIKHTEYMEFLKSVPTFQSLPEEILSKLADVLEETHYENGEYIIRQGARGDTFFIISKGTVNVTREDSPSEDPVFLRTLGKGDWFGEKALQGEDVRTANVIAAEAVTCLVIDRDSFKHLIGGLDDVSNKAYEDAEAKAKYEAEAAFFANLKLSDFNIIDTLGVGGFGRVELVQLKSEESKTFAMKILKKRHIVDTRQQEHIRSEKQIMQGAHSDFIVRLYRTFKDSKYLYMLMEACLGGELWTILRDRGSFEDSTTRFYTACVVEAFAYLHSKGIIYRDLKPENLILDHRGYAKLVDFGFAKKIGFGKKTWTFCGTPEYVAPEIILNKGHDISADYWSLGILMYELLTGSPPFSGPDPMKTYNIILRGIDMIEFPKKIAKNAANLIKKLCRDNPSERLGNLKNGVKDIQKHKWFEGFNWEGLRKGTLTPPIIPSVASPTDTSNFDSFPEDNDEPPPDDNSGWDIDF
Chain of Mitogen-activated protein kinase 14 (Homo sapiens) (Q16539 whole entry): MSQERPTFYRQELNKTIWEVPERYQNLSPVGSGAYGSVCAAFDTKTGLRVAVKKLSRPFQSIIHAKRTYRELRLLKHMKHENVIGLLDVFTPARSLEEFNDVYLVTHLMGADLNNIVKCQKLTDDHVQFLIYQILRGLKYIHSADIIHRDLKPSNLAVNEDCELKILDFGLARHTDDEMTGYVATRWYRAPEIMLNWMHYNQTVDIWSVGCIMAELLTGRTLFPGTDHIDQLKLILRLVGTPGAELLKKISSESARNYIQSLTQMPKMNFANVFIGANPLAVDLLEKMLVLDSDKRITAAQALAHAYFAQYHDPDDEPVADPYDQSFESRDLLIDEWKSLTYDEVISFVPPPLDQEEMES
Chain of Death-associated protein kinase 3 (Homo sapiens) (O43293 whole entry, looked up): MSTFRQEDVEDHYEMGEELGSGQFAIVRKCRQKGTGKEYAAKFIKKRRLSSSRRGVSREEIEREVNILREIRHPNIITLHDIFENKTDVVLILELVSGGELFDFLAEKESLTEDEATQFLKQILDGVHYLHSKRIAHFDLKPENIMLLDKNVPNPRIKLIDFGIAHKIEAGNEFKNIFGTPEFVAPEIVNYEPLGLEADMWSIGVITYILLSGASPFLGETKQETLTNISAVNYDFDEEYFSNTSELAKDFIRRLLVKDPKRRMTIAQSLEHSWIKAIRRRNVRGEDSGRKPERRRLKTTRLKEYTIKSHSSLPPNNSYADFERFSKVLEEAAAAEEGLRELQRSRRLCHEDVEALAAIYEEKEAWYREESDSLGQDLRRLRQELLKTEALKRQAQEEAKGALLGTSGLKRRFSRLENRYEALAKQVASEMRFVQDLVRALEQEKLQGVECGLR

For `COc1cc(N2CCC(N3CCN(C)CC3)CC2)ccc1Nc1ncc(Cl)c(Nc2ccccc2P(C)(C)=O)n1` [BRIGATINIB], in data set [1], the 90% effect level (IC90) was put at 109 nM. Moreover, the inhibition in data set [2], in [3], in data set [7], in [11], in [12] and in [13] was less than 90% in each case. In addition, the inhibition in [14] and in [16] was less than 90% in each case. Besides, the pIC50 – broadly, −log10 of the IC50, conventionally taken in molar units – is less than 6.00 in data set [4]; 6.45 in data set [5]; less than 6.00 in data set [6]; 6.64 in data set [8]; 6.62 in data set [10]. In addition, it took 4 nM to inhibit growth in data set [9] by half (GI50). Besides, the Activity result in [15] is “Non-Toxic”.
